Data set [1] addresses 5-hydroxytryptamine receptor 2B (Homo sapiens) (UniProt P41595). The settings on record: Compound concentration 10.0 uM.
Data set [2] concerns the target Inhibitor of nuclear factor kappa-B kinase subunit beta (Homo sapiens) (UniProt O14920). Put plainly: IKBKB Invitrogen Lab (UK) kinase screen (BI). The conditions noted are these: Compound concentration 1.0 uM.
The target of data set [3] is AMP-activated protein kinase (AMPK) alpha-1/beta-1/gamma-1 (Homo sapiens) (UniProt P54619+Q9Y478+Q13131). Put plainly: AMPK A1B1G1 Invitrogen Lab (UK) kinase screen (BI). In kind it is protein-complex assay. The conditions noted are these: Compound concentration 1.0 uM.
In data set [4] the target is Sigma non-opioid intracellular receptor 1 (Homo sapiens) (UniProt Q99720). The settings on record: Compound concentration 10.0 uM.
The target of data set [5] is 5-hydroxytryptamine receptor 1B (Rattus norvegicus) (UniProt P28564). Briefly: 5HT1B/R Eurofins SafetyScreen44 (BI). The settings on record: Compound concentration 10.0 uM.
The target of data set [6] is Kappa-type opioid receptor (Rattus norvegicus) (UniProt P34975). Briefly: KAPPA/R Eurofins SafetyScreen44 (BI). The conditions noted are these: Compound concentration 10.0 uM.
Data set [7] has as its target Dual specificity mitogen-activated protein kinase kinase 2 (Homo sapiens) (UniProt P36507). Briefly: MAP2K2 Invitrogen Lab (UK) kinase screen (BI). The conditions noted are these: Compound concentration 1.0 uM.
Data set [8] concerns the target T1, Alpha-2A adrenergic receptor (Homo sapiens) (UniProt P08913).
T1 sequence (whole entry): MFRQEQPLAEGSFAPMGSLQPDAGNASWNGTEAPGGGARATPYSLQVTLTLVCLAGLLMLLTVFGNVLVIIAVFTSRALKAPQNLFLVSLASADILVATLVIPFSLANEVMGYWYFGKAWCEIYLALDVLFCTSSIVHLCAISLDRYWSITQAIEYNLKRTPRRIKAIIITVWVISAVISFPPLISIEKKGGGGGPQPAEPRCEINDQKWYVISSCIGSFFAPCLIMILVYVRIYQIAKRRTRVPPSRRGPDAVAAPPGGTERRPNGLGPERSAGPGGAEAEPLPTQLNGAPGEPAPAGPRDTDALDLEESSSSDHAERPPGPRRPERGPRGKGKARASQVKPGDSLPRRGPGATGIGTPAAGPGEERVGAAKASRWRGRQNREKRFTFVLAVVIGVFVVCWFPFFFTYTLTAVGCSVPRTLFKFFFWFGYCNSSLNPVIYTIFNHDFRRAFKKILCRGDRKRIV
The settings on record: Compound concentration 10.0 uM.

In data set [9] the target is Fibroblast growth factor receptor 1 (Homo sapiens) (UniProt P11362). Put plainly: FGFR1 Invitrogen Lab (UK) kinase screen (BI). The settings on record: Compound concentration 1.0 uM.
For data set [10], the target named is Mitogen-activated protein kinase 3 (Homo sapiens) (UniProt P27361). Put plainly: MAPK3 Invitrogen Lab (UK) kinase screen (BI). The settings on record: Compound concentration 1.0 uM.
For data set [11], the target named is 5-hydroxytryptamine receptor 2C (Homo sapiens) (UniProt P28335). The conditions noted are these: Compound concentration 10.0 uM.
Sequence of 5-hydroxytryptamine receptor 2C (Homo sapiens) (P28335 whole entry): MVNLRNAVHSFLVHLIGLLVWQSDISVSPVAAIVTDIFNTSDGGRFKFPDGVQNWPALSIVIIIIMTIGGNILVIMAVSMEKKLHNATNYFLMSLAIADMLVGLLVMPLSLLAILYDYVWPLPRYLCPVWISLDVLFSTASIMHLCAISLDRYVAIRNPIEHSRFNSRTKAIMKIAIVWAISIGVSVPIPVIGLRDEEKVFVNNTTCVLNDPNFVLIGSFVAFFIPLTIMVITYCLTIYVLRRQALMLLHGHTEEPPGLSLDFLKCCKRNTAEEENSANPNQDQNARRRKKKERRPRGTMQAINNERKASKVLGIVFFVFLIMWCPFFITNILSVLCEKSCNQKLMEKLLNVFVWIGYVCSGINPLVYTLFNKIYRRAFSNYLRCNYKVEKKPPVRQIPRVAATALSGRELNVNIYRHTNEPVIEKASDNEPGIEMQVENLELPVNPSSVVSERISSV
Data set [12] has as its target Muscarinic acetylcholine receptor M3 (Homo sapiens) (UniProt P20309). The settings on record: Compound concentration 10.0 uM.
In data set [13] the target is Serine/threonine-protein kinase 3 (Homo sapiens) (UniProt Q13188). Put plainly: STK3 Invitrogen Lab (UK) kinase screen (BI). The settings on record: Compound concentration 1.0 uM.
For data set [14], the target named is Histamine H4 receptor (Homo sapiens) (UniProt Q9H3N8). The conditions noted are these: Compound concentration 10.0 uM.
Sequence of Histamine H4 receptor (Homo sapiens) (Q9H3N8 whole entry): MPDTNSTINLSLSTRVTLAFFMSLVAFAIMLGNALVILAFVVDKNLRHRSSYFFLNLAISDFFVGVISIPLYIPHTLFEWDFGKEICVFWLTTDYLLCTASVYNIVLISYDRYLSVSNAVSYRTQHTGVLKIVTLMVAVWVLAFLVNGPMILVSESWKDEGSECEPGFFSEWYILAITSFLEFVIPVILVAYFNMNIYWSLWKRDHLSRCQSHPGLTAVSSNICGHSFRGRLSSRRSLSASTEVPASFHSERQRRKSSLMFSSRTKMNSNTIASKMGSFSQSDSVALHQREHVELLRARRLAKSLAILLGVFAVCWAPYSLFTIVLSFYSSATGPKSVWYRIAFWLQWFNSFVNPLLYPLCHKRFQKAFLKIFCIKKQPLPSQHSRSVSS
Data set [15] concerns the target MAP kinase-activated protein kinase 3 (Homo sapiens) (UniProt Q16644). Briefly: MAPKAPK3 Invitrogen Lab (UK) kinase screen (BI). The conditions noted are these: Compound concentration 1.0 uM.
The target of data set [16] is 3-phosphoinositide-dependent protein kinase 1 (Homo sapiens) (UniProt O15530). Briefly: PDK1 Invitrogen Lab (UK) kinase screen (BI). The settings on record: Compound concentration 1.0 uM.
Data set [17] addresses Histamine H2 receptor (Homo sapiens) (UniProt P25021). The conditions noted are these: Compound concentration 10.0 uM.
Data set [18] deals with Platelet-derived growth factor receptor alpha (Homo sapiens) (UniProt P16234). Briefly: PDGFRA Invitrogen Lab (UK) kinase screen (BI). The settings on record: Compound concentration 1.0 uM.
Data set [19] has as its target Cyclin-dependent kinase 2/cyclin A (Homo sapiens) (UniProt P24941+P20248+P78396). Briefly: CDK2/CYCLINA Invitrogen Lab (UK) kinase screen (BI). The settings on record: Compound concentration 1.0 uM. In kind it is protein-complex assay.
In data set [20] the test system is Voltage-gated K+ channel Kv1 (Rattus norvegicus). Briefly: K+/VOLT/RA Eurofins SafetyScreen44 (BI). The settings on record: rat brain, probe [125I]a-dendrotoxin, read-out: % Ctrl.
Data set [21] concerns the target Mitogen-activated protein kinase kinase kinase 8 (Homo sapiens) (UniProt P41279). Put plainly: MAP3K8 Invitrogen Lab (UK) kinase screen (BI). The settings on record: Compound concentration 1.0 uM.
Data set [22] has as its target D(2) dopamine receptor (Homo sapiens) (UniProt P14416). The conditions noted are these: Compound concentration 10.0 uM.
In data set [23] the target is Sodium-dependent serotonin transporter (Homo sapiens) (UniProt P31645). The settings on record: Compound concentration 10.0 uM.
Sequence of Sodium-dependent serotonin transporter (Homo sapiens) (P31645 whole entry, looked up): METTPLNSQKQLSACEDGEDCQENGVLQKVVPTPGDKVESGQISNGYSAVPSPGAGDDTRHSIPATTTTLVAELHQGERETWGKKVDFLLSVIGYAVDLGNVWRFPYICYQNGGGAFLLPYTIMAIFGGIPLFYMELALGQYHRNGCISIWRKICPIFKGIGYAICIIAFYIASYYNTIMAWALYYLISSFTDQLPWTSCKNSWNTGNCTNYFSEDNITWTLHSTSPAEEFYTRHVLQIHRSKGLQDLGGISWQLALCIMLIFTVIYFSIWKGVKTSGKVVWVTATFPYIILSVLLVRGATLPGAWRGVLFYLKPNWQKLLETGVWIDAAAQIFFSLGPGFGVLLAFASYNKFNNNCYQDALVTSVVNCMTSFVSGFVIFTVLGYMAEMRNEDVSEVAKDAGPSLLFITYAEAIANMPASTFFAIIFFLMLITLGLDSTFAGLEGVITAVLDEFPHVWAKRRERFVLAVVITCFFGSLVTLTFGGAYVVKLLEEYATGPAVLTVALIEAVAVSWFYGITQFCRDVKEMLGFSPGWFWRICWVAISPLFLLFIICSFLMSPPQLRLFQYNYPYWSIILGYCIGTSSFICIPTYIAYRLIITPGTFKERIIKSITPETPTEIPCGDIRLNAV
The target of data set [24] is Mitogen-activated protein kinase 1 (Homo sapiens) (UniProt P28482). Put plainly: MAPK1 Invitrogen Lab (UK) kinase screen (BI). The conditions noted are these: Compound concentration 1.0 uM.
The target of data set [25] is Alpha-2B adrenergic receptor (Homo sapiens) (UniProt P18089). The settings on record: Compound concentration 10.0 uM.
Sequence of Alpha-2B adrenergic receptor (Homo sapiens) (P18089 whole entry): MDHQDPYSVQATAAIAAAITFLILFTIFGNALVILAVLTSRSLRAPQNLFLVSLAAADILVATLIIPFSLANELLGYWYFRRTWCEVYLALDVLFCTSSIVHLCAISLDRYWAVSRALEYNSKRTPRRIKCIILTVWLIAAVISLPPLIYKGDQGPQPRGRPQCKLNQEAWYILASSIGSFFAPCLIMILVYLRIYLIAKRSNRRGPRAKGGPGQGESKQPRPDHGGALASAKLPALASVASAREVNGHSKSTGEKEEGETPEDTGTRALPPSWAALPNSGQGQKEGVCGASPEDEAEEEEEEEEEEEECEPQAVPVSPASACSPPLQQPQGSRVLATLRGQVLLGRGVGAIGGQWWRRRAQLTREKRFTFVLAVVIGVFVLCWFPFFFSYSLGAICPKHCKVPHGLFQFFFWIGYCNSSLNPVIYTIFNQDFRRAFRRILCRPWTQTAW
For data set [26], the target named is Serine/threonine-protein kinase TBK1 (Homo sapiens) (UniProt Q9UHD2). Put plainly: TBK1 Invitrogen Lab (UK) kinase screen (BI). The settings on record: Compound concentration 1.0 uM.
Data set [27] deals with Sigma intracellular receptor 2 (Homo sapiens) (UniProt Q5BJF2). The conditions noted are these: Compound concentration 10.0 uM.
For data set [28], the target named is D(3) dopamine receptor (Homo sapiens) (UniProt P35462). The settings on record: Compound concentration 10.0 uM.
Data set [29] deals with Mitogen-activated protein kinase 9 (Homo sapiens) (UniProt P45984). Briefly: MAPK9 Invitrogen Lab (UK) kinase screen (BI). The conditions noted are these: Compound concentration 1.0 uM.
For data set [30], the target named is Alpha-1B adrenergic receptor (Homo sapiens) (UniProt P35368). The settings on record: Compound concentration 10.0 uM.
Sequence of Alpha-1B adrenergic receptor (Homo sapiens) (P35368 whole entry): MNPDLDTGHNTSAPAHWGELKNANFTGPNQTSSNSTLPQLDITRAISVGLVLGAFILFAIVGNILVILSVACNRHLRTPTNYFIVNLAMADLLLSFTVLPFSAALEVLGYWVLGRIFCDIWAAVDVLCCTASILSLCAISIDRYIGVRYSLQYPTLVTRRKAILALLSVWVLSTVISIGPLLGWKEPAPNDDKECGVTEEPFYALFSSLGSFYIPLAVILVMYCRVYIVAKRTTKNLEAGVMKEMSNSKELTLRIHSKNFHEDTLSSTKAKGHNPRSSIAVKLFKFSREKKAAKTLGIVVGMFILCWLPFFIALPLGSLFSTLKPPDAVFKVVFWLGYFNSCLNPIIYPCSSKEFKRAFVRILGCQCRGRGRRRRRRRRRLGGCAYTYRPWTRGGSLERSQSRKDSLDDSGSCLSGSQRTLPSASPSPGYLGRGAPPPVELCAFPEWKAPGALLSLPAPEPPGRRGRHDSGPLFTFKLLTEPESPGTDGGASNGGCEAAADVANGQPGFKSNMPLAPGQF
In data set [31] the target is Histamine H1 receptor (Homo sapiens) (UniProt P35367). The settings on record: Compound concentration 10.0 uM.
Sequence of Histamine H1 receptor (Homo sapiens) (P35367 whole entry, the tested form may be a part): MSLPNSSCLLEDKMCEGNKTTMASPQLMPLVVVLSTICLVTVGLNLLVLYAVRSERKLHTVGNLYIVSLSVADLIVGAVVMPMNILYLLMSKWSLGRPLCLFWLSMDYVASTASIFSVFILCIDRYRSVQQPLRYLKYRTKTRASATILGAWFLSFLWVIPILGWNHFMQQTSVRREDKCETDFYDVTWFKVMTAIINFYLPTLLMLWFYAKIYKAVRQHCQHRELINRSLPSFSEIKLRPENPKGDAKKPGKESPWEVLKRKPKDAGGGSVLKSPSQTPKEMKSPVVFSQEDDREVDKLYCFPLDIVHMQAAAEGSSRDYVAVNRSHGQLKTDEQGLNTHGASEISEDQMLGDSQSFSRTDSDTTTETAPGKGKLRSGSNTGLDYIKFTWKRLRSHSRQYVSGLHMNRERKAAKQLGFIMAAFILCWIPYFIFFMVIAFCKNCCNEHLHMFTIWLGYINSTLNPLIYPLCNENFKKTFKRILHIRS
Data set [32] concerns the target Zinc finger and BTB domain-containing protein 32 (Homo sapiens, UniProt Q9Y2Y4). Put plainly: SPR (ZBTB32), Ontario institute for cancer research.
Data set [33] addresses 5-hydroxytryptamine receptor 1B (Homo sapiens) (UniProt P28222). Briefly: 5HT1B(H) Eurofins SafetyScreen44 (BI). The settings on record: filed as antagonist, Compound concentration 10.0 uM.
Data set [34] has as its system Voltage-gated K+ channel Kv1 (Rattus norvegicus). Briefly: K+/VOLT/RA Eurofins SafetyScreen44 (BI). The settings on record: rat brain, probe [125I]a-dendrotoxin, read-out: % Ctrl. The source holds these as a separate data set.
For data set [35], the target named is Cannabinoid receptor 1 (Homo sapiens) (UniProt P21554). Put plainly: CB1(HU)_AGON Eurofins SafetyScreen44 (BI). The settings on record: filed as agonist; Compound concentration 10.0 uM.
Data set [36] deals with Kappa-type opioid receptor (Homo sapiens) (UniProt P41145). Put plainly: KAPPA(KOP)_HU Eurofins SafetyScreen44 (BI). The settings on record: Compound concentration 10.0 uM.

SMILES strings stand for the structures.

Sequence of Histamine H2 receptor (Homo sapiens) (P25021 whole entry): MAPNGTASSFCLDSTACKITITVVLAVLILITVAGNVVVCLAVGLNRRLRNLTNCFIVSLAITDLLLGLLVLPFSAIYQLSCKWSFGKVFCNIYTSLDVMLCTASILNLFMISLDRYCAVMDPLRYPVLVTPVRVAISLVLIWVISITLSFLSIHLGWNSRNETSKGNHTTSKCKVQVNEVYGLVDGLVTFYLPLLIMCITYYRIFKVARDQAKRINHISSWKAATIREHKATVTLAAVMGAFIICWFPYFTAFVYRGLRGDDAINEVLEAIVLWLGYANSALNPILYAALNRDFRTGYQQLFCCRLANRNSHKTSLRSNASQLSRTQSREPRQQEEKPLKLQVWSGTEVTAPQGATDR
Sequence of Muscarinic acetylcholine receptor M3 (Homo sapiens) (P20309 whole entry, looked up): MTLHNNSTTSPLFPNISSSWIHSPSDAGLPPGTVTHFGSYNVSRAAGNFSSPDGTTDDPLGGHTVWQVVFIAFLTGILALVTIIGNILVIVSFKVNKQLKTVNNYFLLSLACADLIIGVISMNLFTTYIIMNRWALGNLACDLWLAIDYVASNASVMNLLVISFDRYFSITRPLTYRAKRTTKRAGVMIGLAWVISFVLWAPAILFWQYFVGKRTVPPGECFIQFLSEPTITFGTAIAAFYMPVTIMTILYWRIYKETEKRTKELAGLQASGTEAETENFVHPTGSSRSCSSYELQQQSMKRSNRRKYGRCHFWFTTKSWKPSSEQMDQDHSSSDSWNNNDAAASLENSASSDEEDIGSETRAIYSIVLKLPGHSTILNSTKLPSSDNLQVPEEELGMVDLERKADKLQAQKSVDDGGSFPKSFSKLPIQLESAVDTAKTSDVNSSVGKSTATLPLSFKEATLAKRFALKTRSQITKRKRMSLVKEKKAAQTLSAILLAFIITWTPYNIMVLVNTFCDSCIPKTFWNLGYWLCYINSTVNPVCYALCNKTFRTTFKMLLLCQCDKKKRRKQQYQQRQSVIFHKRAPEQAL
Sequence of D(2) dopamine receptor (Homo sapiens) (P14416 whole entry): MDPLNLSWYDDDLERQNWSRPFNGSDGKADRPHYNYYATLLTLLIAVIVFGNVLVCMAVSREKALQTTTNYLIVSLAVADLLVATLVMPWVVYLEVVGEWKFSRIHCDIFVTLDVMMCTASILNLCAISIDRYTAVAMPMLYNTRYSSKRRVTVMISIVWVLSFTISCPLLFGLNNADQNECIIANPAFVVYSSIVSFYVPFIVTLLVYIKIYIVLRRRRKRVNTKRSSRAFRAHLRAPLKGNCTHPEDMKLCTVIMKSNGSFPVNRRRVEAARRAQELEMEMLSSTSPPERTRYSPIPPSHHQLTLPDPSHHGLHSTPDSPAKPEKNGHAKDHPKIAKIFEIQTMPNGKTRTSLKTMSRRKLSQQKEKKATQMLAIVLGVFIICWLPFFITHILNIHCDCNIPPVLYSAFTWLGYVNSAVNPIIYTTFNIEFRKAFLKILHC
Sequence of 5-hydroxytryptamine receptor 2B (Homo sapiens) (P41595 whole entry): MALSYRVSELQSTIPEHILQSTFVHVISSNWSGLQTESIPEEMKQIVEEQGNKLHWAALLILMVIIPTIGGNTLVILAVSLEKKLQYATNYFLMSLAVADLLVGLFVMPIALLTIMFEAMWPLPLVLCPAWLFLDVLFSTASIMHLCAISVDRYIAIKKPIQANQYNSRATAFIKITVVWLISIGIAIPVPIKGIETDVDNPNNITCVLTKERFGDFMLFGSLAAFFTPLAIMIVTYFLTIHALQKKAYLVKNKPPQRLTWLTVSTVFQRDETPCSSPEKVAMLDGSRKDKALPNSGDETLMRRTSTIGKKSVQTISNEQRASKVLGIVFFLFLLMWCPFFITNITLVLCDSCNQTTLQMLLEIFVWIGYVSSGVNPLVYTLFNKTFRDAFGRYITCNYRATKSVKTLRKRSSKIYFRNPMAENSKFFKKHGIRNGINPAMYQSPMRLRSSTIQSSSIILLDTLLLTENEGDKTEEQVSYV

As to `CNC(=O)COc1cc2cc(Nc3nc(N4C[C@H](C)C[C@H](C)C4)ncc3Cl)ccc2n(C)c1=O`, the inhibition (commonly the drop in the measured response relative to a control, in per cent) in data set [1] was -5.25%; in data set [4], 19.9%; in data set [8], 5.49%; in data set [11], 0.15%; in [12], -2.43%; in data set [14] it was -0.56%. In addition, the inhibition in data set [17] is 13.9%; in data set [22], -8.96%; in data set [23], 2.53%; in data set [25] it was 7.35%; in data set [27], 17.1%; in [28], 11.6%. Besides, the inhibition is -0.36% in data set [30] and 6.31% in data set [31]. Moreover, the residual activity in data set [2] is 102%; in data set [3], 101%; in data set [5], 115%; in data set [6] it was 89%; in data set [7], 111%; in data set [9] it was 111%. Besides, the residual activity in data set [10] was 105%; in [13], 101%; in data set [15] it was 97%; in data set [16], 98%; in data set [18], 102%; in data set [19], 102%. In addition, the residual activity in data set [21] was 118%; in data set [24], 106%; in data set [26] it was 120%; in data set [29], 110%. Moreover, the activity at 10 µM in data set [20] is 105% (not active).
Consider `C[C@@H]1C[C@H](C)CN(c2ncc(Cl)c(Nc3ccc4c(c3)cc(OC(C)(C)C(=O)O)c(=O)n4C)n2)C1`, for which, in data set [32], the Kd entry was “No binding”. In addition, the residual activity is 95% in data set [33], 95% in data set [35] and 86% in data set [36]. Moreover, the activity at 10 µM in [34] is reported as 97% (not active).
